The source of these data is ChEMBL document CHEMBL4190339, “Design, synthesis and preliminary biological evaluation of new [1,2,3]triazolo[4,5-d]pyrimidine/thiourea hybrids as antiproliferative agents” (Eur J Med Chem, 2017).

The test system of series [1] is NCI-H1650. The series can be described thus: Cell cycle arrest in human NCI-H1650 cells assessed as accumulation at G1 phase at 2 uM after 24 hrs by propidium iodide staining-based flow cytometry (reference value: 55.7%). It counts as functional.
In series [2] the test system is NCI-H1650. The series can be described thus: Cell cycle arrest in human NCI-H1650 cells assessed as accumulation at G2/M phase at 4 uM after 24 hrs by propidium iodide staining-based flow cytometry (reference value: 12.4%). It counts as functional.
In series [3] the test system is NCI-H1650. As to the kind of experiment: Induction of apoptosis in human NCI-H1650 cells assessed as necrotic cells at 4 uM after 24 hrs by Annexin-V-FITC/propidium iodide staining based flow cytometry (reference value: 3.22%). It counts as functional.
Series [4] concerns NCI-H1650. The series can be described thus: Cell cycle arrest in human NCI-H1650 cells assessed as accumulation at G2/M phase at 8 uM after 24 hrs by propidium iodide staining-based flow cytometry (reference value: 12.4%). Format: functional.
Series [5] deals with NCI-H1650. As to the kind of experiment: Cell cycle arrest in human NCI-H1650 cells assessed as accumulation at S phase at 8 uM after 24 hrs by propidium iodide staining-based flow cytometry (reference value: 36.2%). Format: functional.
Series [6] deals with NCI-H1650. As to the kind of experiment: Antiproliferative activity against human NCI-H1650 cells after 48 hrs by MTT assay. It counts as functional, cell-based. To be noted: NCI-H1650, 48 h.
Series [7] has as its system NCI-H1650. The series can be described thus: Induction of apoptosis in human NCI-H1650 cells assessed as viable cells at 4 uM after 24 hrs by Annexin-V-FITC/propidium iodide staining based flow cytometry (reference value: 83.6%). It counts as functional. Particulars: NCI-H1650, 24 h, read-out: Activity.
Another series has as its system A549. As to the kind of experiment: Antiproliferative activity against human A549 cells after 48 hrs by MTT assay. Format: functional, cell-based. To be noted: A549, 48 h.
In series [8] the test system is NCI-H1650. As to the kind of experiment: Cell cycle arrest in human NCI-H1650 cells assessed as accumulation at G2/M phase at 2 uM after 24 hrs by propidium iodide staining-based flow cytometry (reference value: 12.4%). Format: functional.
The test system of series [9] is NCI-H1650. The series can be described thus: Induction of apoptosis in human NCI-H1650 cells assessed as late apoptotic cells at 2 uM after 24 hrs by Annexin-V-FITC/propidium iodide staining based flow cytometry (reference value: 7.64%). It counts as functional.
The test system of series [10] is NCI-H1650. As to the kind of experiment: Induction of apoptosis in human NCI-H1650 cells assessed as viable cells at 2 uM after 24 hrs by Annexin-V-FITC/propidium iodide staining based flow cytometry (reference value: 83.6%). It counts as functional. Particulars: NCI-H1650, 24 h, read-out: Activity.
Series [11] deals with NCI-H1650. As to the kind of experiment: Cell cycle arrest in human NCI-H1650 cells assessed as accumulation at G2/M phase after 24 hrs by propidium iodide staining-based flow cytometry. Format: functional.
Series [12] in a line: Selectivity index, ratio of IC50 for human GES-1 cells to IC50 for human NCI-H1650 cells. Format: toxicity. To be noted: GES-1 cells versus NCI-H1650 cells, read-out: Ratio IC50.
Series [13] has as its system NCI-H1650. As to the kind of experiment: Induction of apoptosis in human NCI-H1650 cells assessed as early apoptotic cells at 4 uM after 24 hrs by Annexin-V-FITC/propidium iodide staining based flow cytometry (reference value: 5.58%). Format: functional.
Series [14] relates to NCI-H1650. As to the kind of experiment: Anticlonogenic activity against human NCI-H1650 cells assessed as inhibition of colony formation after 9 days by crystal violet staining-based assay. Format: functional, cell-based.
Series [15] deals with NCI-H1650. The series can be described thus: Induction of apoptosis in human NCI-H1650 cells assessed as increase in cleaved caspase-9 level up to 8 uM after 24 hrs by Western blot analysis. Format: functional, cell-based.
Series [16] concerns NCI-H1650. As to the kind of experiment: Cell cycle arrest in human NCI-H1650 cells assessed as accumulation at S phase at 2 uM after 24 hrs by propidium iodide staining-based flow cytometry (reference value: 36.2%). Format: functional.
Series [17] deals with NCI-H1650. As to the kind of experiment: Induction of apoptosis in human NCI-H1650 cells assessed as necrotic cells at 2 uM after 24 hrs by Annexin-V-FITC/propidium iodide staining based flow cytometry (reference value: 3.22%). Format: functional.
The test system of series [18] is NCI-H1650. As to the kind of experiment: Cell cycle arrest in human NCI-H1650 cells assessed as accumulation at S phase at 4 uM after 24 hrs by propidium iodide staining-based flow cytometry (reference value: 36.2%). It counts as functional.
The subject of series [19] is NCI-H1650. The series can be described thus: Induction of apoptosis in human NCI-H1650 cells assessed as reduction in Bcl-2 expression up to 8 uM after 24 hrs by Western blot analysis. It counts as functional, cell-based.
In another series the test system is GES1. As to the kind of experiment: Antiproliferative activity against human GES-1 cells after 48 hrs by MTT assay. It counts as cell-based. Particulars: GES1, 48 h.
In a further series the test system is MGC-803. The series can be described thus: Antiproliferative activity against human MGC803 cells after 48 hrs by MTT assay. Format: functional, cell-based. Particulars: MGC-803, 48 h.
For series [20], the system named is NCI-H1650. As to the kind of experiment: Anticlonogenic activity against human NCI-H1650 cells assessed as inhibition of colony formation at 10 uM after 9 days by crystal violet staining-based assay relative to control. Format: functional. To be noted: NCI-H1650, 216 h.
In series [21] the test system is NCI-H1650. The series can be described thus: Induction of apoptosis in human NCI-H1650 cells assessed as late apoptotic cells at 4 uM after 24 hrs by Annexin-V-FITC/propidium iodide staining based flow cytometry (reference value: 7.64%). Format: functional.
For another series, the system named is ECa-109 cell line. As to the kind of experiment: Antiproliferative activity against human EC109 cells after 48 hrs by MTT assay. It counts as functional, cell-based. To be noted: ECa-109, 48 h.
Series [22] has as its system NCI-H1650. The series can be described thus: Cell cycle arrest in human NCI-H1650 cells assessed as accumulation at G1 phase at 4 uM after 24 hrs by propidium iodide staining-based flow cytometry (reference value: 55.7%). Format: functional.
The test system of the next series is MKN-45. As to the kind of experiment: Antiproliferative activity against human MKN45 cells after 48 hrs by MTT assay. It counts as functional, cell-based. Particulars: MKN-45, 48 h.
Series [23] relates to NCI-H1650. The series can be described thus: Induction of apoptosis in human NCI-H1650 cells assessed as increase in early apoptotic cells after 24 hrs by Annexin-V-FITC/propidium iodide staining based flow cytometry. It counts as functional, cell-based.
Series [24] deals with NCI-H1650. As to the kind of experiment: Cell cycle arrest in human NCI-H1650 cells assessed as accumulation at G1 phase at 8 uM after 24 hrs by propidium iodide staining-based flow cytometry (reference value: 55.7%). It counts as functional.
Series [25] deals with NCI-H1650. The series can be described thus: Induction of apoptosis in human NCI-H1650 cells assessed as increase in cleaved caspase-3 level up to 8 uM after 24 hrs by Western blot analysis. Format: functional, cell-based.
The test system of series [26] is NCI-H1650. The series can be described thus: Induction of apoptosis in human NCI-H1650 cells assessed as early apoptotic cells at 2 uM after 24 hrs by Annexin-V-FITC/propidium iodide staining based flow cytometry (reference value: 5.58%). Format: functional.
For series [27], the system named is NCI-H1650. The series can be described thus: Induction of apoptosis in human NCI-H1650 cells assessed as increase in Bax expression measured after 24 hrs by Western blot analysis. It counts as functional, cell-based.

pIC50: −log10 of the molar value. The source made the active and inactive calls. No cut-off for these calls is given here. A value given as a limit tells only on which side of the number the result lay.

In the case of `CCCSc1nc(NCCNC(=S)Nc2cccnc2)c2nnn(CCc3c[nH]c4ccccc34)c2n1`, the Activity with NCI-H1650 [1] is given as 30.6%; with NCI-H1650 [2], 34.7%; in the series with NCI-H1650 [3], 1.38%; in the series on NCI-H1650 [4], 45.6%; in the series with NCI-H1650 [5], 38.4%; in the series with NCI-H1650 [8] it was 23.2%. The Activity in the series on NCI-H1650 [9] is 12.3%; in the series on NCI-H1650 [11] it was “Dose-dependent effect”; in the series on NCI-H1650 [13] it was 36.7%; in the series with NCI-H1650 [16], 35.1%; with NCI-H1650 [17], 1.14%; with NCI-H1650 [18] it was 21.9%. Besides, the Activity was 15.1% with NCI-H1650 [21]; 27.2% with NCI-H1650 [22]; “Dose-dependent effect” in the series on NCI-H1650 [23]; 20.8% in the series with NCI-H1650 [24]; 35.5% in the series on NCI-H1650 [26]; “Dose-dependent effect” in the series on NCI-H1650 [27]. Besides, the pIC50 was 5.72 with NCI-H1650 [6]; 5.48 in the series on A549; 4.56 with GES1; 5.04 with MGC-803; 5.09 in the series with ECa-109 cell line; 5.49 with MKN-45. In addition, the viability at 4 µM with NCI-H1650 [7] amounted to 46.8%. The viability at 2 µM with NCI-H1650 [10] came to 51.1%. Moreover, the selectivity ratio in [12] amounted to 14.4. Also, in the series on NCI-H1650 [14], the inhibition result was “Dose-dependent effect”. In addition, the outcome with NCI-H1650 [15], in the series with NCI-H1650 [19] and in the series on NCI-H1650 [25] was Active. Besides, the inhibition at 10 µM with NCI-H1650 [20] is not above 68%.
Turning to `CCCSc1nc(NCCNC(=S)Nc2cccnc2)c2nnn(C3CCCC3)c2n1`, the pIC50 with NCI-H1650 [6] is 5.05; in the series with A549, 4.82; with GES1 it was 4.48; in the series with MGC-803, 4.72; in the series on ECa-109 cell line, 4.90; with MKN-45 it was 4.87.
On to `CCCSc1nc(NCCNC(=S)Nc2ccc(C)cc2)c2nnn(CCc3ccccc3)c2n1`, for which the negative logarithm of the IC50 (pIC50) in the series with NCI-H1650 [6] is 4.23; with A549, 4.37; in the series on GES1, 4.37; with MGC-803, 4.45; in the series on ECa-109 cell line, 4.55; in the series on MKN-45, 4.30.
`CCCCc1ccc(NC(=S)NCCNc2nc(SCCC)nc3c2nnn3CCc2ccccc2)cc1`: the pIC50 is 4.39 in the series with NCI-H1650 [6]; less than 4.19 with A549; less than 4.19 with GES1; 4.51 in the series with MGC-803; 4.72 with ECa-109 cell line; less than 4.19 in the series on MKN-45.
Regarding `CCCSc1nc(NCCNC(=S)Nc2ccc(Br)cc2)c2nnn(CCc3ccccc3)c2n1`, the pIC50 was 4.29 with NCI-H1650 [6]; 4.49 in the series with A549; less than 4.19 in the series on GES1; 4.42 in the series with MGC-803; 4.64 in the series on ECa-109 cell line; 4.40 with MKN-45.
In the case of `CCCSc1nc(NCCNC(=S)Nc2ccccc2Cl)c2nnn(CCc3ccccc3)c2n1`, the pIC50 with NCI-H1650 [6] is 4.74; with A549 it was less than 4.19; with GES1, less than 4.19; in the series with MGC-803 it was less than 4.19; in the series on ECa-109 cell line, less than 4.19; in the series on MKN-45 it was less than 4.19.
Turning to `CCCSc1nc(NCCNC(=S)Nc2ccc([N+](=O)[O-])cc2)c2nnn(CCc3ccccc3)c2n1`, the pIC50 with NCI-H1650 [6] was 4.58; in the series on A549 it was 4.41; with GES1 it was 4.45; in the series with MGC-803, less than 4.19; in the series on ECa-109 cell line, 4.24; with MKN-45, 4.32.
On to `CCCSc1nc(NCCNC(=S)Nc2ccc(Cl)cc2)c2nnn(CCc3ccccc3)c2n1`, for which the pIC50 is 4.88 with NCI-H1650 [6]; 4.64 in the series with A549; 4.39 with GES1; 4.57 with MGC-803; 4.98 with ECa-109 cell line; 4.43 in the series with MKN-45.
In the case of `CCCSc1nc(NCCNC(=S)Nc2ccccc2)c2nnn(CCc3ccccc3)c2n1`, the pIC50 is 4.31 with NCI-H1650 [6]; less than 4.19 with A549; 4.27 with GES1; less than 4.19 in the series on MGC-803; 4.43 with ECa-109 cell line; less than 4.19 in the series with MKN-45.
For the compound `CCCSc1nc(NCCNC(=S)Nc2cccnc2)c2nnn(CCc3ccccc3)c2n1`, the pIC50 with NCI-H1650 [6] was 5.62; with A549 it was 5.08; in the series on GES1 it was 4.52; in the series on MGC-803, 4.79; with ECa-109 cell line it was 5.30; in the series with MKN-45, 5.18.
